{"source": "ChEMBL document CHEMBL1131750", "about": "“A substrate combinatorial array for caspases” (Bioorg Med Chem Lett, 1999)", "format_in_all_cases": "ADME", "key": {"[1]": {"assay": "Km value of Ac-YVAD-AMC substrate for compound"}, "[2]": {"assay": "Kinetic Constant of Ac-YVAD-AMC for compound"}, "[3]": {"assay": "Kinetic Constant of Ac-WVAD-AMC for compound"}, "[4]": {"assay": "Vmax value of Ac-YVAD-AMC substrate for compound"}, "[5]": {"assay": "Kinetic Constant of Ac-WEAD-AMC for compound"}}, "note": "Peptide text beside a SMILES is read from it. * marks the point of attachment. AMC = Cc1cc(=O)oc2cc(N*)ccc12"}
{"compound": "CC(=O)NCC(=O)NCC(=O)N[C@@H](C)C(=O)N[C@@H](CC(=O)O)C(=O)Nc1ccc2c(C)cc(=O)oc2c1", "note": "(Ac-GGAD-{AMC})", "values": [{"measurement": "Km", "setting": "[1]", "result": 20, "unit": "µM"}, {"measurement": "Vmax / Km", "setting": "[2]", "result": "53 FU min-1 uM-1"}, {"measurement": "Km", "setting": "[3]", "result": 27, "unit": "µM"}, {"measurement": "Vmax", "setting": "[3]", "result": "1300 FU uM-1"}, {"measurement": "Vmax / Km", "setting": "[3]", "result": "48 FU min-1 uM-1"}, {"measurement": "Vmax", "setting": "[4]", "result": "1060 FU uM-1"}, {"measurement": "Km", "setting": "[5]", "result": 9, "unit": "µM"}, {"measurement": "Vmax", "setting": "[5]", "result": "1840 FU uM-1"}, {"measurement": "Vmax / Km", "setting": "[5]", "result": "204 FU min-1 uM-1"}]}
